In series [1] the test system is HCV replicon RNA-containing Huh7 cells (clone A cells). The series can be described thus: HCV replicon assay. The series is classed as cell-based. The note with it: for Replicon assay result in combination with compound 1: synergism: assayed in combination with compound 1. The protocol:
HCV replicon assay. HCV replicon RNA-containing Huh7 cells (clone A cells; Apath, LLC, St. Louis, Mo.) were kept at exponential growth in Dulbecco's modified Eagle's medium (high glucose) containing 10% fetal bovine serum, 4 mM L-glutamine and 1 mM sodium pyruvate, 1× nonessential amino acids, and G418 (1,000 μg/ml). Antiviral assays were performed in the same medium without G418. Cells were seeded in a 96-well plate at 1,500 cells per well, and test compounds were added immediately after seeding. Incubation time 4 days. At the end of the incubation step, total cellular RNA was isolated (RNeasy 96 kit; Qiagen). Replicon RNA and an internal control (TaqMan rRNA control reagents; Applied Biosystems) were amplified in a single-step multiplex RT-PCR protocol as recommended by the manufacturer.
To express the antiviral effectiveness of a compound, the threshold RT-PCR cycle of the test compound was subtracted from the average threshold RT-PCR cycle of the no-drug control (ΔCtHCV). A ΔCt of 3.3 equals a 1-log 10 reduction (equal to the 90% effective concentration [EC90]) in replicon RNA levels. The cytotoxicity of the test compound could also be expressed by calculating the ΔCtrRNA values. The ΔΔCt specificity parameter could then be introduced (ΔCtHCV−ΔCtrRNA), in which the levels of HCV RNA are normalized for the rRNA levels and calibrated against the no-drug control. Compound 1 was tested for its biological properties based on the preceding assay.
For orientation: A replicon is a self-replicating genome or part of one, used to study replication in cells.

Series [2] can be described thus: GVS analysis (hygroscopicity). Type of series: physicochemical.

The values below come from patent US8563530B2, “Purine nucleoside phosphoramidate” (Gilead Pharmassel LLC, priority 2010, dated 2013).

As a reminder, the EC90 is the point of the concentration-response curve where the effect stands at 90%. Consider `COc1nc(N)nc2c1ncn2[C@@H]1O[C@H](CO[P@@](=O)(N[C@@H](C)C(=O)OC(C)C)Oc2ccccc2)[C@@H](O)[C@@]1(C)F` [Compound 1, SP-(2S)-isopropyl 2-(((((2R,3R,4R,5R)-5-(2-amino-6-methoxy-9H-purin-9-yl)-4-fluoro-3-hydroxy-4-methyltetrahydrofuran-2-yl)methoxy)(phenoxy)phosphoryl)amino)propanoate], for which the EC90 in series [1] (Hepatitis C virus, Huh-7, 96 h, clone A cells, incubation time 4 days, replicon RNA by RT-PCR, 1-log 10 reduction, read-out: CloneA EC90) was 20 nM.
As to `COc1nc(N)nc2c1ncn2[C@@H]1O[C@H](CO[P@@](=O)(N[C@@H](C)C(=O)OC(C)C)Oc2ccccc2)[C@@H](O)[C@@]1(C)F.O` [Compound 1.H2O, (S)-2-{(S)-[(1R,4R,5R)-5-(2-Amino-6-methoxy-purin-9-yl)-4-(R)-fluoro-3-hydroxy-4-methyl-tetrahydro-furan-2-ylmethoxy]-phenoxy-phosphorylamino}-propionic acid isopropyl ester monohydrate], in series [2], the GVS hygroscopicity entry is given as “very low hygroscopicity”. For the same molecule, in series [2] (at 90% RH), the “GVS reversible weight gain” value is 0.47 % w/w.
As to `CC(C)(C)OC(=O)N[C@H]1CCCCC/C=C\[C@@H]2C[C@@]2(C(=O)NS(=O)(=O)C2CC2)NC(=O)[C@@H]2C[C@@H](OC(=O)N3Cc4cccc(F)c4C3)CN2C1=O` [ITMN-191], in series [1], the “Replicon assay result in combination with compound 1: synergism” value was “synergism”.
On the same count and under the same terms, for `CC(C)OC(=O)[C@H](C)N[P@](=O)(OC[C@H]1O[C@@H](n2ccc(=O)[nH]c2=O)[C@](C)(F)[C@@H]1O)Oc1ccccc1` [compound E] the value was “synergism”.
